This passage reports IC50 results from article PMC8956058, “Cembranolides and Related Constituents from the Soft Coral Sarcophyton cinereum” (Molecules, 2022).

Like-named read-outs stand apart in the source and are kept apart here.

What all share (format): cell-based
Assay [1] has as its system P388 cells (mouse lymphoma). Kind of assay: Alamar Blue cytotoxicity / anti-proliferation assay, P388. Conditions: triplicate, read-out: Anti-proliferation activities (IC50) P388. How it is done:
(§1) The assay was implemented according to the published protocols. In brief, the Alamar Blue assay was performed for compounds 2–19 by treating them with P388, DLD-1, HuCC-T1, and CCD966SK cancer cells, which were commercially available from the American Type Culture Collection (ATCC). The test was performed in triplicate, and doxorubicin was used as a positive control.

The subject of assay [2] is DLD-1 cells (human colorectal adenocarcinoma). Kind of assay: Alamar Blue cytotoxicity / anti-proliferation assay, DLD-1. The conditions noted are these: triplicate, read-out: Anti-proliferation activities (IC50) DLD-1. The method, then: as §1
Assay [3] concerns HuCCT-1 cells (human intrahepatic cholangiocarcinoma). Kind of assay: Alamar Blue cytotoxicity / anti-proliferation assay, HuCCT-1. The conditions noted are these: triplicate, read-out: Anti-proliferation activities (IC50) HuCCT-1. How it is done:
as §1
For orientation: Alamar Blue is a resazurin reagent that responds to reducing activity.

Assay [4] concerns CCD966SK cells (human skin fibroblast). Kind of assay: Alamar Blue cytotoxicity / anti-proliferation assay, CCD966SK. The conditions noted are these: triplicate, read-out: Anti-proliferation activities (IC50) CCD966SK. How it is done: as §1
The mark [5] stands for this setting: Mus musculus, P388, P388 mouse lymphoma.
Where [6] appears, read: Homo sapiens, DLD-1, DLD-1 human colorectal adenocarcinoma.
Where [7] appears, read: Homo sapiens, HuCCT-1, HuCCT-1 human intrahepatic cholangiocarcinoma.
The mark [8] stands for this setting: DLD-1 human colorectal adenocarcinoma.
Setting [9] is: HuCCT-1 human intrahepatic cholangiocarcinoma.

With `CC(C)C1(O)C=CC(C)(O)CCC(O)C2(C)CCC=C(CC1)C(=O)O2` (stereo not drawn) [Compound 2, Cinerenolide B], the IC50 in assay [1] (setting [5]) is greater than 30 µM; in assay [2] (setting [6]) it was greater than 30 µM; in assay [3] (setting [7]), greater than 30 µM; in assay [4] (Homo sapiens, Skin fibroblast), greater than 30 µM.

With `CC(C)C1(O)C=CC(C)(O)CCC(O)C2(C)CCC=C(CC1)C(=O)O2` (stereo not drawn) [Compound 3, Cinerenolide C], the IC50 in assay [1] (P388 mouse lymphoma), in assay [2] (setting [8]), in assay [3] (setting [9]) and in assay [4] was greater than 30 µM throughout.

For the compound `C=C1CC[C@H]2O[C@]2(C)CCC2=C(C)CO[C@H]2/C=C(\C)CC[C@@H]1OC(C)=O` [Compound 4, sarcophytonoxide E], the IC50 in assay [1] (setting [5]) was greater than 30 µM; in assay [2] (setting [6]), greater than 30 µM; in assay [3] (setting [7]), greater than 30 µM; in assay [4] (Homo sapiens, Skin fibroblast), greater than 30 µM.

Turning to `CC1=C2CC[C@@]3(C)O[C@@H]3CC[C@@](C)(OO)/C=C/C/C(C)=C/[C@@H]2OC1=O` [Compound 5, sarcomililatin A], the IC50 in assay [1] (setting [5]) was 15.2 ± 3.2 µM; in assay [2] (setting [6]), greater than 30 µM; in assay [3] (setting [7]) it was greater than 30 µM; in assay [4] (Homo sapiens, Skin fibroblast), greater than 30 µM.

Turning to `C=C1CC[C@H]2O[C@]2(C)CCC2=C(C)C(=O)O[C@H]2/C=C(\C)CC[C@H]1OO` [Compound 6, sarcomililatin B], the IC50 was 11.8 ± 4.6 µM in assay [1] (setting [5]); greater than 30 µM in assay [2] (setting [6]); greater than 30 µM in assay [3] (setting [7]); greater than 30 µM in assay [4] (Homo sapiens, Skin fibroblast).

Turning to `CC1=CCCC2(C)OC2CCC(C)=CC=C(C(C)(C)O)CC1` (stereo not drawn) [Compound 7, 2-[(E,E,E)-7′,8′-epoxy-4′,8′,12′-trimethylcyclotetradeca-1′,3′,11′-trienyl]propan-2-ol], the IC50 in assay [1] (setting [5]) was greater than 30 µM; in assay [2] (setting [6]), greater than 30 µM; in assay [3] (setting [7]) it was greater than 30 µM; in assay [4] (Homo sapiens, Skin fibroblast), greater than 30 µM.

In the case of `C/C1=C\[C@H](O)CC2=C[C@@H](OC2=O)[C@H](C(C)C)CC/C(C)=C/CC1` [Compound 8, sarcophytonolide F], the IC50 was greater than 30 µM in assay [1] (setting [5]); greater than 30 µM in assay [2] (setting [6]); greater than 30 µM in assay [3] (setting [7]); greater than 30 µM in assay [4] (Homo sapiens, Skin fibroblast).

With `CC1=C2CC[C@@]3(C)O[C@@H]3CC/C(C)=C/CC[C@@](C)(O)/C=C/2OC1=O` [Compound 9, cherbonolide L], the IC50 in assay [1] (setting [5]) was greater than 30 µM; in assay [2] (setting [6]), greater than 30 µM; in assay [3] (setting [7]), greater than 30 µM; in assay [4] (Homo sapiens, Skin fibroblast) it was greater than 30 µM.

Take `CC1=C2CC[C@@]3(C)O[C@@H]3CC/C(C)=C/CC/C(C)=C/[C@@H]2OC1=O` [Compound 10, (+)-(2S)-isosarcophine]: the IC50 was greater than 30 µM in assay [1] (setting [5]); greater than 30 µM in assay [2] (setting [6]); greater than 30 µM in assay [3] (setting [7]); greater than 30 µM in assay [4] (Homo sapiens, Skin fibroblast).

Take `CC1=C2CC[C@@]3(C)O[C@@H]3CC/C(C)=C/CC/C(C)=C/[C@H]2OC1=O` [Compound 11, (–)-(2R)-isosarcophine]: the IC50 in assay [1] (setting [5]) is greater than 30 µM; in assay [2] (setting [6]), greater than 30 µM; in assay [3] (setting [7]), greater than 30 µM; in assay [4] (Homo sapiens, Skin fibroblast), greater than 30 µM.

On to `CC(=O)O[C@H]1/C=C(\C)CC[C@H]2O[C@]2(C)CCC2=C(C)CO[C@H]2/C=C(\C)C1` [Compound 12, sarcophytonoxide A], for which the IC50 in assay [1] (setting [5]) is greater than 30 µM; in assay [2] (setting [6]), greater than 30 µM; in assay [3] (setting [7]), greater than 30 µM; in assay [4] (Homo sapiens, Skin fibroblast) it was greater than 30 µM.

With `CC(C)/C1=C/[C@@H](O)[C@]2(C)O[C@@H]2C[C@@H](O)[C@@]2(C)CCC=C(CC1)C(=O)O2` [Compound 13, sartrolide C], the IC50 was greater than 30 µM in assay [1] (setting [5]); greater than 30 µM in assay [2] (setting [6]); greater than 30 µM in assay [3] (setting [7]); greater than 30 µM in assay [4] (Homo sapiens, Skin fibroblast).

As for `COC(=O)/C1=C\C=C(\C(C)C)CCC2=CCC[C@](C)(OC2=O)C(=O)CC1` [Compound 14, ketoemblide], the IC50 in assay [1] (setting [5]) is greater than 30 µM; in assay [2] (setting [6]), greater than 30 µM; in assay [3] (setting [7]), greater than 30 µM; in assay [4] (Homo sapiens, Skin fibroblast), greater than 30 µM.

On to `CC(=O)OC1CC(C)=CCCC(C)=CC(=O)CC23C(=O)OC(C1C(C)C)C2CC(C)=C1CCC2=CCCC(C)(OC2=O)C(O)CCC(C)=CC13` (stereo not drawn) [Compound 16, glaucumolide A], for which the IC50 in assay [1] (P388 mouse lymphoma) is 16.7 ± 5.8 µM; in assay [2] (setting [8]), greater than 30 µM; in assay [3] (setting [9]), 19.1 ± 6.4 µM; in assay [4] (Homo sapiens, Skin fibroblast), 21.3 ± 5.8 µM.

`CC(=O)OC1CC(C)=CCCC(C)=CC(=O)CC23C(=O)OC(C1C(C)C)C2CC(C)=C1CCC2=CCCC(C)(OC2=O)C(O)CCC(C)=CC13` (stereo not drawn) [Compound 17, glaucumolide B]: the IC50 in assay [1] (P388 mouse lymphoma) is 22.8 ± 9.7 µM; in assay [2] (setting [8]) it was greater than 30 µM; in assay [3] (setting [9]) it was greater than 30 µM; in assay [4], 26.1 ± 10.3 µM.

Regarding `CC(=O)OC1CC(C)=CCCC(C)=CC(=O)CC23C(=O)OC(C1C(C)C)C2CC(C)=C1CCC2=CCCC(C)(OC2=O)C(O)CCC(C)=CC13` (stereo not drawn) [Compound 18, bistrochelide A], the IC50 in assay [1] (P388 mouse lymphoma) was determined as 10.6 ± 1.9 µM; in assay [2] (setting [8]), 9.9 ± 1 µM; in assay [3] (setting [9]) it was 2 ± 0.1 µM; in assay [4], 18.8 ± 6.9 µM.

As to `COc1cccc2c1C(=O)c1c(O)c3c(c(O)c1C2=O)C[C@@](O)(C(=O)CO)C[C@@H]3O[C@H]1C[C@H](N)[C@H](O)[C@H](C)O1` [Doxorubicin, doxorubicin, reference compound], the IC50 in assay [1] (setting [5]) was 0.69 ± 0.01 µM; in assay [2] (setting [6]), 4.1 ± 0.7 µM; in assay [3] (setting [7]) it was 1.9 ± 0.1 µM; in assay [4] (Homo sapiens, Skin fibroblast), 2.9 ± 0.4 µM.

For isosarcophytonolide D [Compound 15], the IC50 in assay [1] (P388 mouse lymphoma) is greater than 30 µM; in assay [2] (setting [8]), greater than 30 µM; in assay [3] (setting [9]), greater than 30 µM; in assay [4], 27.6 ± 7.8 µM.
